Data published in the supplement of paper PMC10307832.

Key:
Assay in all cases: relative viability (nuclei count vs DMSO), 5 days (fraction); higher = more cells survive
EHT 1864 + AZD7762 = compound: C1COCCN1CC2=CC(=O)C(=CO2)OCCCCCSC3=C4C=CC(=CC4=NC=C3)C(F)(F)F [EHT 1864] + NC(=O)Nc1cc(-c2cccc(F)c2)sc1C(=O)N[C@H]1CCCNC1 [AZD7762] (partner 0.2 µM)
How it was run: (§1)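 Cells from lung cancer lines were seeded into 1536-well plates and, one day later, dosed by pin tool. Treatments were either a single drug or a fixed dose of an anchor drug with five library-drug doses (not always all listed) in √10 steps. After 5 days, nuclei were stained in a one-step fixation (final 0.05% Triton X-100, 1% formaldehyde, 1 ug/ml Hoechst) and counted on 4× images, and relative viability is the treated-to-vehicle nuclei ratio, as the median of duplicate plates.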

EHT 1864 + Palbociclib = compound: C1COCCN1CC2=CC(=O)C(=CO2)OCCCCCSC3=C4C=CC(=CC4=NC=C3)C(F)(F)F [EHT 1864] + CC(=O)c1c(C)c2cnc(Nc3ccc(N4CCNCC4)cn3)nc2n(C2CCCC2)c1=O [Palbociclib] (partner 0.5 µM)
How it was run: as §1

EHT 1864 + Crizotinib = compound: C1COCCN1CC2=CC(=O)C(=CO2)OCCCCCSC3=C4C=CC(=CC4=NC=C3)C(F)(F)F [EHT 1864] + C[C@@H](Oc1cc(-c2cnn(C3CCNCC3)c2)cnc1N)c1c(Cl)ccc(F)c1Cl [Crizotinib] (partner 1 µM)
How it was run: as §1

EHT 1864 + Vorinostat = compound: C1COCCN1CC2=CC(=O)C(=CO2)OCCCCCSC3=C4C=CC(=CC4=NC=C3)C(F)(F)F [EHT 1864] + O=C(CCCCCCC(=O)Nc1ccccc1)NO [Vorinostat] (partner 1 µM)
How it was run: as §1

Cell Line | relative viability (EHT 1864 + AZD7762; first compound 0.04 µM) | relative viability (EHT 1864 + AZD7762; first compound 0.1265 µM) | relative viability (EHT 1864 + AZD7762; first compound 0.4 µM) | relative viability (EHT 1864 + AZD7762; first compound 1.265 µM) | relative viability (EHT 1864 + AZD7762; first compound 4 µM) | relative viability (EHT 1864 + Palbociclib; first compound 0.04 µM) | relative viability (EHT 1864 + Palbociclib; first compound 0.1265 µM) | relative viability (EHT 1864 + Palbociclib; first compound 0.4 µM) | relative viability (EHT 1864 + Palbociclib; first compound 1.265 µM) | relative viability (EHT 1864 + Palbociclib; first compound 4 µM) | relative viability (EHT 1864 + Crizotinib; first compound 0.04 µM) | relative viability (EHT 1864 + Crizotinib; first compound 0.4 µM) | relative viability (EHT 1864 + Crizotinib; first compound 1.265 µM) | relative viability (EHT 1864 + Crizotinib; first compound 4 µM) | relative viability (EHT 1864 + Vorinostat; first compound 0.04 µM) | relative viability (EHT 1864 + Vorinostat; first compound 0.1265 µM) | relative viability (EHT 1864 + Vorinostat; first compound 0.4 µM) | relative viability (EHT 1864 + Vorinostat; first compound 1.265 µM) | relative viability (EHT 1864 + Vorinostat; first compound 4 µM) | relative viability (EHT 1864 + Crizotinib; first compound 0.1265 µM)
NCI-H23 | 0.203 | 0.231 | 0.223 | 0.198 | 0.221 | 0.559 | 0.429 | 0.531 | 0.546 | 0.492 | 0.488 | 0.513 | 0.496 | 0.5 | 0.627 | 0.343 | 0.582 | 0.578 | 0.532 | –
NCI-H322M | 0.601 | 0.501 | 0.589 | 0.577 | 0.667 | 0.488 | 0.488 | 0.434 | 0.456 | 0.465 | 0.927 | 0.849 | 0.995 | 1.05 | 0.856 | 0.921 | 0.863 | 0.807 | 0.789 | 0.837
NCI-H358 | 0.558 | 0.587 | 0.536 | 0.556 | 0.456 | 0.14 | 0.117 | 0.133 | 0.135 | 0.124 | 0.604 | 0.616 | 0.517 | 0.579 | 0.645 | 0.652 | 0.612 | 0.68 | 0.559 | –
NCI-H441 | 1.01 | – | 1.04 | 1.11 | 1.5 | 0.233 | – | 0.215 | 0.195 | 0.226 | 0.783 | 0.752 | 0.879 | 0.723 | 0.975 | – | 0.713 | 0.75 | 0.735 | 0.591
NCI-H460 | 0.642 | 0.541 | 0.635 | 0.436 | 0.568 | – | 0.155 | 0.16 | 0.16 | 0.173 | 0.805 | 0.769 | 0.888 | 0.799 | – | 0.718 | 0.703 | 0.654 | 0.647 | 0.85
NCI-H647 | 0.621 | 0.296 | 0.661 | 0.44 | 0.461 | 0.414 | 0.351 | 0.451 | 0.373 | 0.375 | 1 | 0.903 | 0.992 | 0.911 | 0.612 | 0.455 | 0.512 | 0.762 | 0.485 | 0.922
NCI-H650 | 0.994 | 0.612 | 1.13 | 1.1 | 1.06 | 0.332 | 0.256 | 0.346 | 0.327 | 0.325 | 0.71 | 0.805 | 0.7 | 0.698 | 0.497 | 0.308 | 0.413 | 0.457 | 0.478 | –
NCI-H727 | 0.579 | 0.693 | 0.587 | 0.555 | 0.794 | 0.663 | 0.642 | 0.626 | 0.595 | 0.653 | 0.803 | 0.699 | – | 0.786 | 1.47 | 1.31 | 1.07 | 1.26 | 1.29 | 0.713
NCI-H838 | 0.959 | 0.895 | 0.886 | 0.872 | 0.959 | 0.208 | 0.185 | 0.266 | 0.223 | 0.244 | 0.74 | 0.911 | 0.826 | 0.802 | 0.713 | 0.668 | 0.74 | 0.723 | 0.727 | 0.724
